In data set [1] the test system is PKB phosphorylation (pSer473) in NIH3T3 cells. In words: Ly294002 dose dependence with and without bpV(pic). To be noted: NIH3T3, 10 μg/ml insulin, without bpV(pic). The data set is classed as cell-based. As for the experimental part: In order to find out whether bpV(pic) has an influence on Ly294002-dependent PKB inhibition we accomplished a dose response experiment applying concentrations from 0.01 up to 100 μM Ly294002 to two sets of quiescent fibroblasts and incubated for 20 min. One batch of cells were then further treated with 200 nM bpV(pic) (5 min) and all cells were finally stimulated with 10 μg/ml insulin for 15 min. Cell lysates were collected as described earlier. Calculations and graph were performed using GraphPad Prism.
(§1) All cell lysate samples were loaded on 10% SDS-PAGE and transferred to PVDF membranes for PKB analysis and nitrocellulose for phospho tyrosine detection. For PKB Western Blots membranes were blocked for 1 h with 5% milk powder in TBST followed by an incubation with anti Mass PKB antibody (1:1000) or anti phospho-PKB (Ser473) antibody (1:1000) in TBST for 2 h. Finally, membranes were exposed to a horseradish peroxidase-conjugated secondary antiserum (BIORAD) (1:1000) in 5% milk powder solution for 1 h. The Western Blots were developed with ECL™ solution (Amersham). In order to detect phosphorylated tyrosine residues nitrocellulose membranes were blocked for 1 h with 2.5% milk powder, first incubated with a specific anti phosphotyrosine antibody (4G10) (1:3000) for 1 h, and finally with horseradish peroxidase-conjugated secondary anti mouse antiserum. All PKB and Phospho-Tyrosine experiments were accomplished in three independent experiments and all membranes were re-probed using a specific tubulin antibody (1:1000). Density analysis of bands took place using the public domain NIH Image V1.62 program (developed at the U.S. National Institutes of Health and available on the Internet at http://rsb.info.nih.gov/nih-image/).

In the next data set the target is T1, PTP-β (Homo sapiens, UniProt P23467).
T1 construct: purchased Upstate Biotechnology
In words: PTPase assay with pNPP as substrate. It counts as biochemical. As to the method: Protein tyrosine phosphatase (PTPase) assays were performed using the synthetic substrate p-nitrophenylphosphate (pNPP) and the phosphatases PTP-1B and PTP-β (Upstate Biotechnology). The standard assay conditions were 25 mM HEPES pH 7.2, 50 mM NaCl, 5 mM DTT, 2.5 mM EDTA, 100 μg/ml BSA, 1 mM pNPP (Sigma) and 4 unit PTP-1B and 10 unit PTP-β, respectively. The assay was started by adding the enzyme and was carried out for 15 min at 30 C in a preheated ELISA reader chamber. The linear increase of absorbance was monitored every 30 seconds at a wavelength of 410 nm.

The target in data set [2] is T2, PTEN (Homo sapiens, UniProt P60484).
T2 construct: GST (N); made in house; host or cells: Escherichia coli DH5 alpha
In words: Malachite green phosphate release assay with PI(3,4,5)P3. The data set is classed as biochemical. To be noted: for PTEN inhibition, summary in words: comment below PTEN table; for specificity of phosphatase inhibition: PTEN versus SopB, MTM, PTP; for IC50: head says published data, same values as the applicant's FIG. 1 study, read-out: PTEN Published data In vitro enzyme assay confirmed by in vivo data. As to the method:
The coding region of the DNA sequence of human PTEN was cloned into a pGEX-4T2 expression vector (Pharmacia). Protein expression was induced overnight in the Escherichia coli DH5[…] strain using 100 μM IPTG at 18 C. GST-fusion proteins were purified according to the manufacturer's manual using glutathione sepharose 4B (Pharmacia). Protein integrity and specificity were confirmed on a Western Blot using GST antibody (Novagen).
Enzyme activity of recombinant PTEN was measured with a malachite green dye based phosphate release assay (No 230, No 83). The standard assay conditions were 200 mM Tris pH 7.4, 50 ng/μl BSA, and 15 ng/μl PTEN. The synthetic lipid PI(3,4,5)P3dC16 (Cell Signals) was used as a substrate for PTEN. The lipid was dissolved in methanol/H2O and stored at −20 C. Prior to the use in these PIPase experiments, an appropriate amount of lipid was dried down and resuspended in 1% Octylglycoside (Sigma). After 10 min of sonication lipid samples were ready to be added to the enzyme assay. All assays were started by adding the enzyme into the pre-heated buffer solution, containing PI(3,4,5)P3dC16. Linear PIPase reactions were performed at 30 C for 30 min in an incubation chamber. In order to stop the enzyme reaction, 0.7 volume of colour reagent (2.3 mg/ml malachite green in 3.6 M HCl and 17 mM ammonium molybdate) was added to the enzyme solution. The mixture was allowed to develop for 20 min and the absorbance at 625 nm was measured. For all inhibitor studies inhibitor concentrations from 0.1 nM up to 500 nM were pre-incubated with PTEN and the enzyme assays were started by adding 150 μM sonicated lipid. To normalize the phosphate release a phosphate standard curve was used. All experiments were repeated in tripletts. Calculations for IC50 values were performed using GraphPad Prism.

The next data set addresses SopB (Salmonella typhimurium, UniProt O30916). In words: biochemical. It counts as biochemical.
The next data set has as its target T3, MTM (Homo sapiens, UniProt Q13496).
T3 sequence (Q13496 1-603): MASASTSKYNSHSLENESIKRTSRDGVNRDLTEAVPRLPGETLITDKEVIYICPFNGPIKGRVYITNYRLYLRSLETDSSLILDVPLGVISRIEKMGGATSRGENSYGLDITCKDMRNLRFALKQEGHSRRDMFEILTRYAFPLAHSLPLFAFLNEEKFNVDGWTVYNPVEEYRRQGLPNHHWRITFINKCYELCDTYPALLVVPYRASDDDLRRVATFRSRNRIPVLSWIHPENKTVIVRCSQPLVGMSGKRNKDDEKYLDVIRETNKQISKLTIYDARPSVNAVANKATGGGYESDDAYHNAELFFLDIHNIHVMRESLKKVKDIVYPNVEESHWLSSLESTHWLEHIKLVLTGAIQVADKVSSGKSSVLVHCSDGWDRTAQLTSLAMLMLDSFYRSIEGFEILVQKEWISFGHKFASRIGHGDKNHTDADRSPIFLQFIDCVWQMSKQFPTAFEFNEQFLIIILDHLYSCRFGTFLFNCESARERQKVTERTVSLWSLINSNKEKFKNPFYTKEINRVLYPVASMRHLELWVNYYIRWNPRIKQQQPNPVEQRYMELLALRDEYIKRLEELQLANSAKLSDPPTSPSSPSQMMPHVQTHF
In words: MTM IC50 (inositol phosphatase inhibition). The data set is classed as biochemical.

The target of data set [3] is T4, PTEN (Mus musculus, UniProt O08586).
T4 construct: endogenous in cells; host or cells: NIH3T3
Kind of data set: PKB assay: dose dependence of PTEN inhibition in insulin-stimulated NIH3T3 cells (pSer473 Western blot). It counts as cell-based. Particulars: for increase of PKB phosphorylation in comparison with the control: 20 nM compound, control 0.5 μg/ml insulin. As for the experimental part: (§2) NIH3T3 cells (passage 5-20) were grown in 10% NCS D-MEM (GIBCO BRL) in 6-well plates at 37 C and 5% CO2. Starvation of the cells was carried out over 72 h in D-MEM containing 0.5% NCS. Prior use medium was changed to 0% D-MEM. UM-UC-3 cells which is a PTEN^− bladder tumour cell line (NO 195, No 196) were grown in 10% MEM (GIBCO BRL), starved with 0.5% MEM also for three days and finally incubated with serum free MEM.
(§3) UM-UC-3 cells were treated in exactly the same manner. Cell samples were analysed on Western Blots with PKB antibodies.
as §1

The test system of data set [4] is PKB phosphorylation (pSer473) in NIH3T3 cells. Kind of data set: PKB assay: activation of insulin signalling pathway (insulin mimetic property), NIH3T3. The data set is classed as cell-based. To be noted: NIH3T3, 1 μM, 15 min, no insulin. As to the method:
as §2
Cells were washed once with PBS and lysed using 80 μl SDS-PAGE buffer (250 mM Tris pH 6.8, 20% glycerol, 4% SDS, 0.01% bromphenol blue, 50 mM mercaptoethanol). Samples were boiled for 15 min and stored at −20 C until analysis on Western Blots as described in the last paragraph.
as §1

Data set [5] has as its target T4, PTEN. Kind of data set: PTEN preliminary data (western blots). The data set is classed as cell-based. As for the experimental part: as §3, §1
(In general: In western blotting, separated proteins are transferred to a membrane and probed.)

Data set [6] concerns phosphorylation of tyrosine residues in NIH3T3 cells. In words: Phosphotyrosine assay with NIH3T3 cells. It counts as cell-based. To be noted: 10 μM, 15 min. As to the method: NIH3T3 cells were grown and starved as described earlier. After 72 h starvation cells were incubated for 15 min with 10% NCS, 50, 10 and […] insulin (Sigma), 10, 1, 0.1 and 0.01 μM bpV(pic) and bpV(phen), respectively. Cell lysates were prepared as described above and all samples were analysed on Western Blots using an anti phospho-tyrosine antibody (Upstate).
as §1

For a further data set, the system named is NIH3T3 cells. Kind of data set: Phalloidin staining (actin re-arrangement, morphology). The data set is classed as cell-based. To be noted: 0.1 μM, 6 h and 24 h. As for the experimental part:
In order to monitor morphological changes NIH3T3 cells were grown on 8-well chamber slides and incubated with concentrations of bpV(pic) and bpV(phen) between 0.1 and 10 μM for 6 h and 24 h, respectively. Fibroblasts were fixed with 4% para-formaldehyde (PFA), permeabilised with 0.2% Triton and blocked with 10% NCS (newborn calf serum). To stain actin filaments cells were incubated with TRITC-phalloidin (Sigma) (1:1000) for 1 h. Finally, nuclei were DAPI (Sigma) stained and mounted. Morphological analyses were assessed on a microscope using filters for TRITC and DAPI and pictures were captured using a camera.

[7] abbreviates: +IV compound, read-out: IC50 SopB.
Setting [8] is: +V compound, read-out: IC50 SopB.

This note sets out measurements from patent US7692012B2, “Vanadium compounds as inhibitors of phosphatases” (Imperial College Innovations Limited, priority 2003, dated 2010).

Read-outs that look alike come from different tables or passages of the source.

T2 sequence (P60484 whole entry): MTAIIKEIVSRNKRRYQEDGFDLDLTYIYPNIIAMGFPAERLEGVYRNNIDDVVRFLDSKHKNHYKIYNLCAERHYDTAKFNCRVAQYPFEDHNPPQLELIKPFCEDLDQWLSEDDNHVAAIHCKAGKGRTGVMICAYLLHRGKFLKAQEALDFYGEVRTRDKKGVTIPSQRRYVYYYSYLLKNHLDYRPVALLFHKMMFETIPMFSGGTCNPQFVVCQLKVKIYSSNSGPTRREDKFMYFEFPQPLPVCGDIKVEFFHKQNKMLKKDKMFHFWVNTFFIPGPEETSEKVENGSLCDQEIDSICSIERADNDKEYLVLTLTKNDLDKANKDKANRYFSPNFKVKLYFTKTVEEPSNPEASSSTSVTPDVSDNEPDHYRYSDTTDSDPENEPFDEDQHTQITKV
T1 sequence (P23467 23-1997): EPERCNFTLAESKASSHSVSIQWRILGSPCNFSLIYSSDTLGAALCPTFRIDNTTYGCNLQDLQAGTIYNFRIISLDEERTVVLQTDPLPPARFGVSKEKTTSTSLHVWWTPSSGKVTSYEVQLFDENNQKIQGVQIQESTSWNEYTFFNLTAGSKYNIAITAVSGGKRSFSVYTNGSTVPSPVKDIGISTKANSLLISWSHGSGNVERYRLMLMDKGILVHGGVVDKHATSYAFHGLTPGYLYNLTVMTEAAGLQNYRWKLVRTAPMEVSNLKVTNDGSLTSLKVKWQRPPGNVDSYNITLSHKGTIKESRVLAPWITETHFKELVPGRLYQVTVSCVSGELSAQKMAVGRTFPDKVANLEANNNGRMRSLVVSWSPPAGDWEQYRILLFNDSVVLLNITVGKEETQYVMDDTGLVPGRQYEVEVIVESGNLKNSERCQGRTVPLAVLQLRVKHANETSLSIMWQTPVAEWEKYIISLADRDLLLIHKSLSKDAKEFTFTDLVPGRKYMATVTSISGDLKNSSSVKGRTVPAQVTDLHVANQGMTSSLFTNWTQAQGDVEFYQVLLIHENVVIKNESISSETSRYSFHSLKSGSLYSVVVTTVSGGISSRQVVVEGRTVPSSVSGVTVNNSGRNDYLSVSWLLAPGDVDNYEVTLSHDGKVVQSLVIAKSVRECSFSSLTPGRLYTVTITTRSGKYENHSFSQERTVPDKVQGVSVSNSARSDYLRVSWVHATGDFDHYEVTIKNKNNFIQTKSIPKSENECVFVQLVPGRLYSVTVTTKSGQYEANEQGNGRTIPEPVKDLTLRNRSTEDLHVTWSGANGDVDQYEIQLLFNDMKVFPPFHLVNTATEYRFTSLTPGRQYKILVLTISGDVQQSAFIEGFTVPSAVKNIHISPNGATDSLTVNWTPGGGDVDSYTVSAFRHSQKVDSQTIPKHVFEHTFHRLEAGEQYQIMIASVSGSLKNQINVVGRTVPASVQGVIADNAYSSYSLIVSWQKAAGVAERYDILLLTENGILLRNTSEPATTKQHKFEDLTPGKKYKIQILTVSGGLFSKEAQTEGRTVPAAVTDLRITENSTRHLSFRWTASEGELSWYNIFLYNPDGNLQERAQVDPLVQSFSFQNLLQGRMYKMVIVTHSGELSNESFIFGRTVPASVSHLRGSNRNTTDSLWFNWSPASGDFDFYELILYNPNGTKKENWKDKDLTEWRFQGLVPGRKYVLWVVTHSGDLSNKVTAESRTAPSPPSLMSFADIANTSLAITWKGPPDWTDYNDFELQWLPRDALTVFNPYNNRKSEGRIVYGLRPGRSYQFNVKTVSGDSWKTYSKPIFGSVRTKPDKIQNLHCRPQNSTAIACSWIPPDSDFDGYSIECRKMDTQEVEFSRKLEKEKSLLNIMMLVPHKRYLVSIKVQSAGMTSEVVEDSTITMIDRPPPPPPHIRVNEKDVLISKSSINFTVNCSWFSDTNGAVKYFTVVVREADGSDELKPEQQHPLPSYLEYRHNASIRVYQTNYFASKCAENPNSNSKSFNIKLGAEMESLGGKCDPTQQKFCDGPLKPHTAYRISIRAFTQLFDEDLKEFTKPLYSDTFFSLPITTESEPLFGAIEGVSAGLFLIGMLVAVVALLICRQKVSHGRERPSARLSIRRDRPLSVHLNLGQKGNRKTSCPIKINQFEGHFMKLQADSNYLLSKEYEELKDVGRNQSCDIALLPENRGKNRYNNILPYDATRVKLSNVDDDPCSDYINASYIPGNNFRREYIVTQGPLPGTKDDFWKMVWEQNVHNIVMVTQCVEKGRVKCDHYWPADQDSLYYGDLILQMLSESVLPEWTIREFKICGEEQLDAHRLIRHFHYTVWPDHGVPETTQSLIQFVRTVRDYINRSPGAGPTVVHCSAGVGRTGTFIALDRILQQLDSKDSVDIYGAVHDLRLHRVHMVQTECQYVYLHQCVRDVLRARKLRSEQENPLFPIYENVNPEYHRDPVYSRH
T4 sequence (O08586 whole entry): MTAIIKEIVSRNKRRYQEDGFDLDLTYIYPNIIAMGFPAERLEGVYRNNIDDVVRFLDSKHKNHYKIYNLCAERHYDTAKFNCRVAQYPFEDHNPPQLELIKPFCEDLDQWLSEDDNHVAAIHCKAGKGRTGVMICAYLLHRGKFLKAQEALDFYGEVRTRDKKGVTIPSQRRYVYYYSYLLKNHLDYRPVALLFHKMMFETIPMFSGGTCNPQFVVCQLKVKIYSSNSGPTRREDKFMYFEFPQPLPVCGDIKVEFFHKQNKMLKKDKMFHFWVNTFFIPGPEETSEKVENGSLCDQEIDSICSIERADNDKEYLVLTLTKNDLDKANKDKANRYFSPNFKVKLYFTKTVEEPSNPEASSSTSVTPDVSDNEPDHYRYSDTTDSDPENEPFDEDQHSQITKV
Chain of SopB (O30916 whole entry): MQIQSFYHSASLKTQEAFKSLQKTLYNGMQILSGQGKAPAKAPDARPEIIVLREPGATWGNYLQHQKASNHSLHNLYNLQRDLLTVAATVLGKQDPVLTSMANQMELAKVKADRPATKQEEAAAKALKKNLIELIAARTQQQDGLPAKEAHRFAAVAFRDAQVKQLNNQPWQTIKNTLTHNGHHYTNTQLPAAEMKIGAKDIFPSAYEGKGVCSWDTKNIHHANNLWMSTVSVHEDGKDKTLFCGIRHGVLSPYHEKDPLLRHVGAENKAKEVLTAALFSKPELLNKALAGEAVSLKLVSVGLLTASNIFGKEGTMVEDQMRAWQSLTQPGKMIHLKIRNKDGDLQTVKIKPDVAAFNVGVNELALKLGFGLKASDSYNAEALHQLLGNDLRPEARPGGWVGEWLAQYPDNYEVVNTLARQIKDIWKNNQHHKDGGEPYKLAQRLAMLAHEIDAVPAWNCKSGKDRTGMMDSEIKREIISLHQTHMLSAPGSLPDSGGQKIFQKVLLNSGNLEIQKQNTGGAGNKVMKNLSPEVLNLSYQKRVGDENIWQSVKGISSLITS

As to `O=c1cc(N2CCOCC2)oc2c(-c3ccccc3)cccc12` [Ly294002, reference compound], the “concentration sufficient to inhibit PKB activation completely” value in [1] amounted to 5 µM.
With `O=C([O-])c1ncccc1O.O=C([O-])c1ncccc1O.[O]=[V+2]` [OHpic4], the IC50 on PTP-β (V(+IV) compounds) stood at 57500 ± 9400 nM; on SopB (setting [7]), 588 ± 163 nM; on MTM (Compound(+IV)), 4030 ± 40 nM. Moreover, the “PTEN inhibition, summary in words” value at PTEN [2] is “very good inhibitors”.
As for `O=C([O-])c1ccc(O)cn1.[K+].[K+].[O-2].[O-][O-].[O-][O-].[V+5]` [bpV(HOpic), dipotassium bisperoxo(5-hydroxypyridine-2-carboxyl)oxovanadatel], the “specificity of phosphatase inhibition” value at PTEN [2] is recorded as “specifically inhibit PTEN, but not SopB, MTM or PTP”. In addition, the IC50 amounted to 14 ± 2.3 nM at PTEN [2]; 33.2 ± 6.5 nM on SopB (setting [8]); 346 ± 24.8 nM on MTM (Compound(+V)); 96 nM on PTEN [3] (NIH3T3, 5 min compound then 0.5 μg/ml insulin 15 min, read-out: IC50 (in vivo PTEN inhibition, densitometry of pSer473 PKB)); 211 nM at PTEN [5]. The “increase of PKB phosphorylation in comparison with the control” value at PTEN [3] is “about 20%”. Moreover, the “phosphorylated PKB signal” value in [4] is “weak signal”.
The compound `[K+].[O-][O-].[O-][O-].[O]=[V+3].c1ccc(-c2ccccn2)nc1` [bpV(bipy), potassium bisperoxo (bipyridine) oxovanadate] gave an IC50 against PTP-β (aromatic bpVs, pNPP substrate) of 60.3 nM. Besides, the “increase of PKB phosphorylation in comparison with the control” value at PTEN [3] is given as “about 20%”. The “phosphorylated PKB signal” value in data set [4] is “weak signal”.
Regarding `O.O.O.OO.OO.[K+].[OH-].[V].c1cnc2c(c1)ccc1cccnc12` [bpV(phen), potassium bisperoxo(1,10-phenanthroline)oxovanadate], the IC50 turned out to be 38 ± 2.4 nM on PTEN [2], 102 nM at SopB (setting [8]), 407 ± 38.5 nM at MTM (Compound(+V)) and 275 nM against PTEN [5]. Besides, the “phosphorylated PKB signal” value in data set [4] is given as “no phosphorylation was visible”. Moreover, in data set [6], the tyrosine phosphorylation result is “lower stimulation”. Also, in the data set on NIH3T3 cells, the “cellular morphology (actin staining)” value is “remained unchanged”.
`O=C([O-])c1nccc2ccccc12.[K+].[K+].[O-][O-].[O-][O-].[O]=[V+3]` [pV(isoqu)]: the IC50 is 349000 ± 26500 nM against PTP-β (V(+V) compounds), 79.8 ± 9.7 nM on SopB (setting [8]), 868 ± 187 nM against MTM (Compound(+V)) and 101 nM on PTEN [5].
Take `O=C([O-])c1ccccn1.O=C([O-])c1ccccn1.[O]=[V+2]` [pic4]: the results for the IC50 against PTP-β (V(+IV) compounds), at SopB (setting [7]) and against MTM (Compound(+IV)) were 589000 ± 32900 nM, 125 ± 1.65 nM and 6350 ± 3920 nM, respectively.
Turning to `O=C([O][V](=[O])[O]C(=O)c1ccc2ccccc2n1)c1ccc2ccccc2n1` [quinolin4], the IC50 at PTP-β (V(+IV) compounds) was found to be 212000 ± 9400 nM; against SopB, 1960 ± 870 nM; against MTM (Compound(+IV)), 9260 ± 40 nM.
With “dipotassium bisperoxo(phenylbiguanide)oxovanadate [pV(phenbig)]”, the “specificity of phosphatase inhibition” value on PTEN [2] is given as “specifically inhibit PTEN, but not SopB, MTM or PTP”. Also, the “PTEN inhibition, summary in words” value on PTEN [2] is “very good inhibitors”. Further, the IC50 on SopB (setting [8]) turned out to be 798 ± 41 nM; at MTM (Compound(+V)), 1890 ± 830 nM; at PTEN [5], 48.5 nM.
